According to patent US20050197350A1, “Novel quinoline, tetrahydroquinazoline, and pyrimidine derivatives and methods of treatment related to the use thereof” (TAISHO PHARMACEUTICAL CO., LTD., priority 2003, published 2005):

Tested on: MCH receptors
Experiment: MCH receptor activity class (method not given)
Conditions: class by percent of control at 10^-7 M or IC50

Row | Compound | class
1 | CN(C)c1cc(N[C@H]2CC[C@@H](NC(=O)Nc3cccc4ccccc34)CC2)nc2ccccc12 [compound 2130, N-(cis-4-{[4-(dimethylamino)quinolin-2-yl]amino}cyclohexyl)-N′-1-naphthylurea] | 1 (Class 1: The value of percent of control at 10^−7 M was less than 40% or the value of IC50 was less than 50 nM.)
2 | CN(C)c1cc(N[C@H]2CC[C@@H](NC(=O)NC3C[C@H]3c3ccccc3)CC2)nc2ccccc12 (some centres unmarked) [compound 2131] | 3 (Class 3 The value of percent of control at 10^−7 M was more than 60% or the value of IC50 was more than 200 nM.)
3 | CN(C)c1cc(N[C@H]2CC[C@@H](NC(=O)Nc3ccc(Oc4ccccc4)cc3)CC2)nc2ccccc12 [compound 2132] | 3 (Class 3 The value of percent of control at 10^−7 M was more than 60% or the value of IC50 was more than 200 nM.)
4 | CCCCCNC(=O)N[C@H]1CC[C@@H](Nc2cc(N(C)C)c3ccccc3n2)CC1 [compound 2133] | 3 (Class 3 The value of percent of control at 10^−7 M was more than 60% or the value of IC50 was more than 200 nM.)
5 | CC(NC(=O)NC1CCC(Nc2cc(N(C)C)c3ccccc3n2)CC1)c1ccccc1 (centres unmarked) [compound 2137] | 3 (Class 3 The value of percent of control at 10^−7 M was more than 60% or the value of IC50 was more than 200 nM.)
6 | CN(C)c1cc(N[C@H]2CC[C@@H](NC(=O)Nc3c(Cl)c(Cl)cc(Cl)c3Cl)CC2)nc2ccccc12 [compound 2138] | 3 (Class 3 The value of percent of control at 10^−7 M was more than 60% or the value of IC50 was more than 200 nM.)
7 | CN(C)c1cc(N[C@H]2CC[C@@H](NC(=O)Nc3ccc(Br)cc3Br)CC2)nc2ccccc12 [compound 2139] | 3 (Class 3 The value of percent of control at 10^−7 M was more than 60% or the value of IC50 was more than 200 nM.)
8 | CN(C)c1cc(N[C@H]2CC[C@@H](NC(=O)NCc3ccc(Cl)cc3Cl)CC2)nc2ccccc12 [compound 2140] | 3 (Class 3 The value of percent of control at 10^−7 M was more than 60% or the value of IC50 was more than 200 nM.)
9 | COc1ccc(NC(=O)N[C@H]2CC[C@@H](Nc3cc(N(C)C)c4ccccc4n3)CC2)c(OC)c1 [compound 2141] | 3 (Class 3 The value of percent of control at 10^−7 M was more than 60% or the value of IC50 was more than 200 nM.)
10 | CCOc1ccccc1NC(=O)N[C@H]1CC[C@@H](Nc2cc(N(C)C)c3ccccc3n2)CC1 [compound 2142] | 3 (Class 3 The value of percent of control at 10^−7 M was more than 60% or the value of IC50 was more than 200 nM.)
11 | CN(C)c1cc(N[C@H]2CC[C@@H](NC(=O)NCc3ccccc3F)CC2)nc2ccccc12 [compound 2143] | 3 (Class 3 The value of percent of control at 10^−7 M was more than 60% or the value of IC50 was more than 200 nM.)
12 | Cc1cc([N+](=O)[O-])ccc1NC(=O)N[C@H]1CC[C@@H](Nc2cc(N(C)C)c3ccccc3n2)CC1 [compound 2144] | 3 (Class 3 The value of percent of control at 10^−7 M was more than 60% or the value of IC50 was more than 200 nM.)
13 | Cc1ccc([N+](=O)[O-])cc1NC(=O)N[C@H]1CC[C@@H](Nc2cc(N(C)C)c3ccccc3n2)CC1 [compound 2145] | 3 (Class 3 The value of percent of control at 10^−7 M was more than 60% or the value of IC50 was more than 200 nM.)
14 | Cc1ccccc1CNC(=O)N[C@H]1CC[C@@H](Nc2cc(N(C)C)c3ccccc3n2)CC1 [compound 2146] | 3 (Class 3 The value of percent of control at 10^−7 M was more than 60% or the value of IC50 was more than 200 nM.)
15 | CN(C)c1cc(N[C@H]2CC[C@@H](NC(=O)Nc3ccccc3[N+](=O)[O-])CC2)nc2ccccc12 [compound 2147] | 3 (Class 3 The value of percent of control at 10^−7 M was more than 60% or the value of IC50 was more than 200 nM.)
16 | CN(C)c1cc(N[C@H]2CC[C@@H](NC(=O)Nc3ccc4c(c3)OCO4)CC2)nc2ccccc12 [compound 2148] | 3 (Class 3 The value of percent of control at 10^−7 M was more than 60% or the value of IC50 was more than 200 nM.)
17 | COc1cc(NC(=O)N[C@H]2CC[C@@H](Nc3cc(N(C)C)c4ccccc4n3)CC2)cc(OC)c1OC [compound 2149, N-(cis-4-{[4-(dimethylamino)quinolin-2-yl]amino}cyclohexyl)-N′-(3,4,5-trimethoxyphenyl)urea] | 1 (Class 1: The value of percent of control at 10^−7 M was less than 40% or the value of IC50 was less than 50 nM.)
18 | COc1ccc(NC(=O)N[C@H]2CC[C@@H](Nc3cc(N(C)C)c4ccccc4n3)CC2)cc1OC [compound 2150] | 3 (Class 3 The value of percent of control at 10^−7 M was more than 60% or the value of IC50 was more than 200 nM.)
19 | COc1ccc(NC(=O)N[C@H]2CC[C@@H](Nc3cc(N(C)C)c4ccccc4n3)CC2)cc1Cl [compound 2151] | 3 (Class 3 The value of percent of control at 10^−7 M was more than 60% or the value of IC50 was more than 200 nM.)
20 | CN(C)c1cc(N[C@H]2CC[C@@H](NC(=O)Nc3ccc(Br)cc3C(F)(F)F)CC2)nc2ccccc12 [compound 2152] | 3 (Class 3 The value of percent of control at 10^−7 M was more than 60% or the value of IC50 was more than 200 nM.)
21 | CN(C)c1cc(N[C@H]2CC[C@@H](NC(=O)NCc3ccc(Br)cc3)CC2)nc2ccccc12 [compound 2153] | 3 (Class 3 The value of percent of control at 10^−7 M was more than 60% or the value of IC50 was more than 200 nM.)
22 | Cc1cc(Cl)ccc1NC(=O)N[C@H]1CC[C@@H](Nc2cc(N(C)C)c3ccccc3n2)CC1 [compound 2154] | 3 (Class 3 The value of percent of control at 10^−7 M was more than 60% or the value of IC50 was more than 200 nM.)
23 | CN(C)c1cc(N[C@H]2CC[C@@H](NC(=O)NCc3ccc(F)cc3)CC2)nc2ccccc12 [compound 2155] | 3 (Class 3 The value of percent of control at 10^−7 M was more than 60% or the value of IC50 was more than 200 nM.)
24 | COc1ccc(NC(=O)N[C@H]2CC[C@@H](Nc3cc(N(C)C)c4ccccc4n3)CC2)c(C)c1 [compound 2156] | 3 (Class 3 The value of percent of control at 10^−7 M was more than 60% or the value of IC50 was more than 200 nM.)
25 | COc1cc(OC)c(NC(=O)N[C@H]2CC[C@@H](Nc3cc(N(C)C)c4ccccc4n3)CC2)cc1Cl [compound 2157, N-(5-chloro-2,4-dimethoxyphenyl)-N′-(cis-4-{[4-(dimethylamino)quinolin-2-yl]amino}cyclohexyl)urea] | 1 (Class 1: The value of percent of control at 10^−7 M was less than 40% or the value of IC50 was less than 50 nM.)
26 | Cc1cc(Br)ccc1NC(=O)N[C@H]1CC[C@@H](Nc2cc(N(C)C)c3ccccc3n2)CC1 [compound 2159] | 2 (Class 2: The value of percent of control at 10^−7 M was from 40% to 60% or the value of IC′50 was from 50 nM to 200 nM.)
27 | CN(C)c1cc(N[C@H]2CC[C@@H](NC(=O)Nc3ccc4c(c3)OCCO4)CC2)nc2ccccc12 [compound 2161] | 3 (Class 3 The value of percent of control at 10^−7 M was more than 60% or the value of IC50 was more than 200 nM.)
28 | CC(C)c1cc(Br)c(NC(=O)N[C@H]2CC[C@@H](Nc3cc(N(C)C)c4ccccc4n3)CC2)c(Br)c1 [compound 2162] | 3 (Class 3 The value of percent of control at 10^−7 M was more than 60% or the value of IC50 was more than 200 nM.)
29 | COc1ccc(NC(=O)N[C@H]2CC[C@@H](Nc3cc(N(C)C)c4ccccc4n3)CC2)cc1OC1CCCC1 [compound 2163] | 3 (Class 3 The value of percent of control at 10^−7 M was more than 60% or the value of IC50 was more than 200 nM.)
